Earlier results, collected in patent publication US6727104B2, “Microcolumn chromatographic immunoassays” (The Board of Regents of the University of Nebraska, priority 2001, dated 2004).
Where two headings read alike, the source gives them in different places.

Experiments:
[1] = biological target: T1, Thyroxine-Binding Globulin (Homo sapiens, UniProt P05543); details: T4 Binding Site
T1 sequence (P05543 21-415): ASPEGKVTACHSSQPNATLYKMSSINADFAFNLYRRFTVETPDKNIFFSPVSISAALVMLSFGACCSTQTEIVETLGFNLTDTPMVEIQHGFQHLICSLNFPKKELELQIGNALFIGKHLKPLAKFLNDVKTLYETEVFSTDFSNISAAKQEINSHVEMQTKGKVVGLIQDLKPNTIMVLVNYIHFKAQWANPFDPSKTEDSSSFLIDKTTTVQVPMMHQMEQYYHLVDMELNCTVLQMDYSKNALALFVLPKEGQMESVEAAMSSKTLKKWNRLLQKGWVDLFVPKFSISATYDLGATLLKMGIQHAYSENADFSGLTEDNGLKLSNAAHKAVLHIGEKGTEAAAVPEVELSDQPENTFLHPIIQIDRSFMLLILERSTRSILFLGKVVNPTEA

[2] = biological target: Thyroxine-Binding Prealbumin (Homo sapiens, UniProt P02766)

Ka [1]: 1e+10 M⁻¹ | Ka ([2]; High Affinity Site): 1e+07 M⁻¹ | Ka ([2]; Low Affinity Site): 300000 M⁻¹
SMILES: N[C@@H](Cc1cc(I)c(Oc2cc(I)c(O)c(I)c2)c(I)c1)C(=O)O [T4, L-Thyroxine]
